In ChEMBL document CHEMBL5523687, “Pentafluorosulfanyl-substituted biaryl derivatives as MATE-type transporter inhibitors targeting drug-resistant bacteria” (Bioorg Med Chem, 2024):
≈ marks a conversion by molar mass, not a printed value. Calls of active or inactive are those of the source. The rule behind the calls is not given here.

Assays:
Escherichia coli [1] = experiment: Inhibition of MATE-type HmrM in norfloxacin-resistant Escherichia coli KAM32 assessed as norfloxacin antibacterial activity efficacy at 30 uM measured for 18 hrs incubation by CLSI based microplate reader analysis relative to norfloxacin alone
Escherichia coli [2] = experiment: Inhibition of MATE-type HmrM in norfloxacin-resistant Escherichia coli KAM32 assessed as norfloxacin antibacterial activity by measuring norfloxacin MIC measured for 18 hrs incubation by CLSI based microplate reader analysis
[3] = Inhibition of MATE-type HmrM (unknown origin); parameters: species or system Bacteria
Bacteria = experiment: Inhibition of MATE-type HmrM (unknown origin) at 100 uM relative to control
Escherichia coli [4] = experiment: Antibacterial activity against Norfloxacin sensitive Escherichia coli KAM32 harboring PBR322 assessed as reduction in bacterial growth measured for 18 hrs by CLSI based analysis; assay type: functional
Escherichia coli [5] = experiment: Antibacterial activity against Norfloxacin resistant Escherichia coli KAM32 harboring PBR322 hmrM assessed as reduction in bacterial growth measured for 18 hrs by CLSI based analysis; assay type: functional
Escherichia coli [6] = experiment: Antibacterial activity against Norfloxacin sensitive Escherichia coli KAM32 harboring PBR322 assessed as inhibition of bacterial growth by measuring efficacy at 30 uM measured for 18 hrs by CLSI based analysis relative to control; assay type: functional
Escherichia coli [7] = experiment: Antibacterial activity against Norfloxacin resistant Escherichia coli KAM32 harboring PBR322 assessed as inhibition of bacterial growth by measuring efficacy at 30 uM measured for 18 hrs by CLSI based analysis relative to control; assay type: functional
Escherichia coli [8] = experiment: Antibacterial activity against Escherichia coli KAM32 harboring PBR322 hmrM assessed as effect on bacterial growth at 10 uM measured for 30 hrs by microplate reader analysis; assay type: functional, organism-based

Row | SMILES | Efficacy (Escherichia coli [1]) | MIC (Escherichia coli [2]) | further results
1 | CN/C(=N\C#N)NCCCCCc1cccc(S(F)(F)(F)(F)F)c1 | 71% | 0.026 µg/mL (≈ 0.0702 µM) | –
2 | CN/C(=N\C#N)NCCCCCc1cccc(Cl)c1 | 57% | 0.032 µg/mL (≈ 0.115 µM) | –
3 | CN/C(=N\C#N)NCc1cccc(-c2cccc(Cl)c2)c1 | 38% | 0.04 µg/mL (≈ 0.134 µM) | –
4 | Clc1cccc(CCCCCN2CCOCC2)c1 | 0% | 0.056 µg/mL (≈ 0.209 µM) | –
5 | CN(C)/C(=N\C#N)N(C)CCCC#Cc1cccc(S(F)(F)(F)(F)F)c1 | 100% | 0.014 µg/mL (≈ 0.0355 µM) | EC50 [3]: 6.8 µM
6 | CN/C(=N\C#N)NCCC/C=C/c1cccc(Cl)c1 | 71% | 0.026 µg/mL (≈ 0.0939 µM) | –
7 | CN/C(=N\C#N)NCCCC#Cc1cccc(S(F)(F)(F)(F)F)c1 | 100% | 0.02 µg/mL (≈ 0.0546 µM) | –
8 | CN/C(=N\C#N)NCCCCCc1cccc(I)c1 | 0% | 0.056 µg/mL (≈ 0.151 µM) | –
9 | CN/C(=N\C#N)NCCCCCc1cccc(S(C)(=O)=O)c1 | 38% | 0.04 µg/mL (≈ 0.124 µM) | –
10 | CN/C(=N\C#N)NCCCCCc1cccc(NS(C)(=O)=O)c1 | 38% | 0.04 µg/mL (≈ 0.119 µM) | –
11 | CN/C(=N/C#N)NCc1ccc(-c2cccc(Cl)c2)cc1 | 100% | 0.014 µg/mL (≈ 0.0469 µM) | –
12 | CN(C)/C(=N\C#N)N(C)Cc1ccc(-c2cccc(Cl)c2)cc1 | 100% | 0.014 µg/mL (≈ 0.0428 µM) | EC50 [3]: 4 µM
13 | CN/C(=N\C#N)NCCCC#Cc1cccc(Cl)c1 | 71% | 0.026 µg/mL (≈ 0.0946 µM) | –
14 | CN/C(=N\C#N)NCCCCCc1cccc(C)c1 | 57% | 0.032 µg/mL (≈ 0.124 µM) | –
15 | CN/C(=N\C#N)NCCC[C@H]1C[C@@H]1c1cccc(Cl)c1 | 57% | 0.032 µg/mL (≈ 0.11 µM) | –
16 | CN/C(=N\C#N)NCCCCCc1cccc(F)c1 | 38% | 0.04 µg/mL (≈ 0.152 µM) | EC50 [3]: > 30 µM; Efficacy (Bacteria): 92%

Row | SMILES | Efficacy (Escherichia coli [1]) | MIC (Escherichia coli [2]) | further results
17 | CN/C(=N\C#N)NCCC[C@@H]1C[C@@H]1c1cccc(Cl)c1 | 57% | 0.032 µg/mL (≈ 0.11 µM) | –
18 | CCn1cc(C(=O)O)c(=O)c2cc(F)c(N3CCNCC3)cc21 [NORFLOXACIN] | – | – | MIC (Escherichia coli [4]): 0.014 µg/mL (≈ 0.0438 µM); MIC (Escherichia coli [5]): 0.056 µg/mL (≈ 0.175 µM); Efficacy (Escherichia coli [6]): 100%; Efficacy (Escherichia coli [7]): 0%
19 | CN/C(=N\C#N)NCCCCCc1cccc(Br)c1 | 19% | 0.048 µg/mL (≈ 0.148 µM) | –
20 | CN(C)/C(=N\C#N)N(C)CCCC#Cc1cccc(Cl)c1 | 100% | 0.014 µg/mL (≈ 0.0462 µM) | EC50 [3]: 6.8 µM
21 | CN(C)/C(=N\C#N)N(C)CCCCCc1cccc(Cl)c1 | 71% | 0.026 µg/mL (≈ 0.0847 µM) | –
22 | CN/C(=N\C#N)NCCCNC(=O)c1cccc(Cl)c1 | 0% | 0.056 µg/mL (≈ 0.191 µM) | –
23 | CN/C(=N\C#N)NCc1ccccc1-c1cccc(Cl)c1 | 38% | 0.04 µg/mL (≈ 0.134 µM) | –
24 | C#Cc1cccc(CCCCCN/C(=N/C#N)NC)c1 | 57% | 0.04 µg/mL (≈ 0.149 µM) | –
25 | CN/C(=N\C#N)NCCC/C=C\c1cccc(Cl)c1 | 71% | 0.026 µg/mL (≈ 0.0939 µM) | –
26 | Clc1cccc(CCCCCn2ccnc2)c1 | 38% | 0.04 µg/mL (≈ 0.161 µM) | –
27 | CN/C(=N/C#N)NCC#CC#Cc1cccc(Cl)c1 | 0% | 0.056 µg/mL (≈ 0.207 µM) | –
28 | CN/C(=N\C#N)NCCCCCc1cccc(C#N)c1 | 57% | 0.032 µg/mL (≈ 0.119 µM) | –
29 | CN(C)/C(=N\C#N)N(C)Cc1ccc(-c2cccc(S(F)(F)(F)(F)F)c2)cc1 | 100% | 0.014 µg/mL (≈ 0.0335 µM) | Activity (Escherichia coli [8]): inactive; EC50 [3]: 1.8 µM
30 | CN/C(=N\C#N)NCCCCc1cccc(Cl)c1 | 38% | 0.04 µg/mL (≈ 0.151 µM) | –
31 | COCCCCCc1cccc(Cl)c1 | 0% | 0.056 µg/mL (≈ 0.263 µM) | –
32 | OCCCCCc1cccc(Cl)c1 | 0% | 0.056 µg/mL (≈ 0.282 µM) | –
